Assay results taken from patent publication US20230159445A1, “STAT INHIBITORY COMPOUNDS AND COMPOSITIONS” (JANPIX LIMITED, priority 2020, published 2023).

What was measured:
glutathione (GSH) = test: Reactivity Profiling with Glutathione (GSH), half-life by HPLC; conditions: 5 mM glutathione (GSH) in IMDM with 10% FBS
[1] = test system: normal human fibroblast (NHF) cells; test: NHF Cell Cytotoxicity Assay (CellTiter-Blue, 72 h), off-target effects; assay type: cell-based; conditions: pooled NHF cells
Procedure: In some embodiments, the off-target effects of the compounds are evaluated in healthy human cells, such as in a normal human fibroblast (NHF) cell cytotoxicity assay.
Cell viability was examined following treatment at various concentrations of inhibitor (0.097656-50 μM) using a cell Titer-Blue cell viability assay. 1×10^4 normal human fibroblast cells per well were plated in 96-well assay plates in culture medium. All cells are grown in DMEM, IMDM and RPMI-1640 were supplemented with 10% FBS. After 24 hours, test compounds and vehicle controls are added to appropriate wells so the final volume was 100 μl in each well. The cells are cultured for the desired test exposure period (72 hours) at 37° C. and 5% CO2. The assay plates are removed from 37° C. incubator and 20 μL/well of CellTiter-Blue® Reagent is added. The plates are incubated using standard cell culture conditions for 1-4 hours and the plates are shaken for 10 seconds and record fluorescence at 560/590nm. For each sample well, value is normalized between the DMSO control and the highest concentration in case of plateau, and converted into a percentage. In the absence of plateau, minimum lecture is obtained from a different sample within the same experiment. For each concentration, the four replicates are averaged and standard deviation calculated. Data is fitted to a log(inhibitor) vs response curve with variable slope model using Microsoft Excel, obtaining IC50 and Hill slope variables.
A person skilled in the art would appreciate that a higher IC50 value in this NHF assay can indicate lower off-target effects.

MV4-11 cells = test: MV4-11 Cell Cytotoxicity Assay (CellTiter-Blue, 72 h); assay type: cell-based, human; conditions: MV-4-11 cells
In short: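 Viability read-out: CellTiter-Blue, 1 h, fluorescence 560/590 nm. Preceded by 72 h exposure (37° C, 5% CO2) to twofold dilution series from 50 μM, triplicate, 0.5% DMSO vehicle, applied 24 h after plating.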

SMILES | half-life at 25 μM (glutathione (GSH)) [h] | IC50 ([1]; Homo sapiens, Fibroblast) [µM] | IC50 (MV4-11 cells; Homo sapiens, MV4-11) [nM] | IC50 [1] [µM] | IC50 (MV4-11 cells) [nM]
COc1cc(C(=O)O)ccc1N(Cc1cc(C2CC2)cc(C2CC2)c1)C(=O)CN(Cc1ncccc1C(F)(F)F)S(=O)(=O)c1c(F)c(F)c(F)c(F)c1F [Compound 1162, 4-(N-(3,5-dicyclopropylbenzyl)-2-(N-((3-(trifluoromethyl)pyridin-2-yl)methyl)-(2,3,4,5,6-pentafluoro-phenyl)sulfonamido)acetamido)-3-methoxybenzoic acid] | 2.37 to 4.12 | 10 to 20 |  |  | 
Cc1cc(C(=O)O)cc(C)c1N(Cc1cc(C2CC2)cc(C2CC2)c1)C(=O)CN(Cc1ccc(F)cc1Cl)S(=O)(=O)c1c(F)c(F)c(F)c(F)c1F [Compound 1188, 4-(2-(N-(2-chloro-4-fluorobenzyl)-(2,3,4,5,6-pentafluorophenyl)sulfon-amido)-N-(3,5-dicyclopropylbenzyl)acetamido)-3,5-dimethylbenzoic acid] |  | 0.001 to 10 | 316 to 1000 |  | 
O=C(O)c1ccc(N(Cc2cc(C3CC3)cc(N3CCCC3)c2)C(=O)CN(Cc2cnccc2C(F)(F)F)S(=O)(=O)c2c(F)c(F)c(F)c(F)c2F)c(OC2CC2)c1 [Compound 1190, 3-cyclopropoxy-4-(N-(3-cyclopropyl-5-(pyrrolidin-1-yl)benzyl)-2-(N-((4-(trifluoromethyl)pyridin-3-yl)methyl)-(2,3,4,5,6-pentafluoro-phenyl)sulfonamido)acetamido)benzoic acid] | 2.37 to 4.12 | 0.001 to 10 |  |  | 
CC(C)(C)c1cc(CN(C(=O)CN(Cc2ccc(F)cc2Cl)S(=O)(=O)c2c(F)c(F)c(F)c(F)c2F)c2ccc(C(=O)O)cc2C2CC2)cc(C2CC2)c1 [Compound 1193, 4-(N-(3-(tert-butyl)-5-cyclopropylbenzyl)-2-(N-(2-chloro-4-fluorobenzyl)-(2,3,4,5,6-pentafluorophenyl)sulfon-amido)acetamido)-3-cyclopropylbenzoic acid] |  |  |  | 10 to 20 | 0.01 to 316
Cc1cc(C(=O)O)cc(C)c1N(Cc1cc(C2CC2)cc(C2CC2)c1)C(=O)CN(Cc1c(F)c(F)c(F)c(F)c1F)S(=O)(=O)c1c(F)c(F)c(F)c(F)c1F [Compound 1204, 4-(N-(3,5-dicyclopropylbenzyl)-2-(N-((perfluorophenyl)methyl)-(2,3,4,5,6-pentafluoro-phenyl)sulfonamido)acetamido)-3,5-dimethylbenzoic acid] |  | 0.001 to 10 | 316 to 1000 |  | 
CN(C)c1cc(C(=O)O)ccc1N(Cc1cc(C2CC2)cc(N2CCCC2)c1)C(=O)CN(Cc1ccc(F)cc1Cl)S(=O)(=O)c1c(F)c(F)c(F)c(F)c1F [Compound 1212, 4-(2-(N-(2-chloro-4-fluorobenzyl)-(2,3,4,5,6-pentafluorophenyl)sulfon-amido)-N-(3-cyclopropyl-5-(pyrrolidin-1-yl)benzyl)acetamido)-3-(dimethylamino) benzoic acid] |  | 10 to 20 | 316 to 1000 |  | 
O=C(O)c1ccc(N(Cc2cc(C3CC3)cc(C3CC3)c2)C(=O)CN(Cc2ccc(F)cc2C(F)(F)F)S(=O)(=O)c2c(F)c(F)c(F)c(F)c2F)c(OC2CC2)c1 [Compound 1223, 3-cyclopropoxy-4-(N-(3,5-dicyclopropylbenzyl)-2-(N-(4-fluoro-2-(trifluoromethyl)benzyl)-(2,3,4,5,6-pentafluoro-phenyl)sulfonamido)acetamido)benzoic acid] | 4.12 to 9.23 | 20 to 30 |  |  | 
CC(C)(C)c1cc(CN(C(=O)CN(Cc2ccccc2C#N)S(=O)(=O)c2c(F)c(F)c(F)c(F)c2F)c2ccc(C(=O)O)cc2OC2CC2)cc(C2CC2)c1 [Compound 1224, 4-(N-(3-(tert-butyl)-5-cyclopropylbenzyl)-2-(N-(2-cyanobenzyl)-(2,3,4,5,6-pentafluorophenyl)sulfon-amido)acetamido)-3-cyclopropoxybenzoic acid] |  | 0.001 to 10 |  |  | 
O=C(O)c1ccc(N(Cc2cc(C3CC3)cc(C3CC3)c2)C(=O)CN(Cc2ccc(F)cc2Cl)S(=O)(=O)c2c(F)c(F)c(F)c(F)c2F)c(OC2CCOCC2)c1 [Compound 1230, 4-(2-(N-(2-chloro-4-fluorobenzyl)-(2,3,4,5,6-pentafluorophenyl)sulfon-amido)-N-(3,5-dicyclopropylbenzyl)acetamido)-3-((tetrahydro-2H-pyran-4-yl)oxy)benzoic acid] | 2.37 to 4.12 | 0.001 to 10 |  |  | 
O=C(O)c1ccc(N(Cc2cc(C3CC3)cc(N3CCCC3)c2)C(=O)CN(Cc2ccc(F)cc2Cl)S(=O)(=O)c2c(F)c(F)c(F)c(F)c2F)c(OC2CCCC2)c1 [Compound 1239, 4-(2-(N-(2-chloro-4-fluorobenzyl)-(2,3,4,5,6-pentafluorophenyl)sulfon-amido)-N-(3-cyclopropyl-5-(pyrrolidin-1-yl)benzyl)acetamido)-3-(cyclopentyloxy)benzoic acid] |  | 20 to 30 | 0.01 to 316 |  | 
O=C(O)c1ccc(N(Cc2cc(C3CC3)cc(C3CC3)c2)C(=O)CN(Cc2ccc(F)cc2Cl)S(=O)(=O)c2c(F)c(F)c(F)c(F)c2F)c(N2CCCC2)c1 [Compound 1240, 4-(2-(N-(2-chloro-4-fluorobenzyl)-(2,3,4,5,6-pentafluorophenyl)sulfon-amido)-N-(3,5-dicyclopropylbenzyl)acetamido)-3-(pyrrolidin-1-yl)benzoic acid] |  | 10 to 20 | 0.01 to 316 |  | 
CCc1cc(C(=O)O)ccc1N(Cc1cc(C2CC2)cc(C2CC2)c1)C(=O)CN(Cc1ccc(F)cc1Cl)S(=O)(=O)c1c(F)c(F)c(F)c(F)c1F [Compound 1243, 4-(2-(N-(2-chloro-4-fluorobenzyl)-(2,3,4,5,6-pentafluorophenyl)sulfon-amido)-N-(3,5-dicyclopropylbenzyl)acetamido)-3-ethylbenzoic acid] |  | 10 to 20 |  |  | 
CC(C)c1cc(C(=O)O)ccc1N(Cc1cc(C2CC2)cc(C2CC2)c1)C(=O)CN(Cc1ccc(F)cc1Cl)S(=O)(=O)c1c(F)c(F)c(F)c(F)c1F [Compound 1244, 4-(2-(N-(2-chloro-4-fluorobenzyl)-(2,3,4,5,6-pentafluorophenyl)sulfon-amido)-N-(3,5-dicyclopropylbenzyl)acetamido)-3-isopropylbenzoic acid] |  | 10 to 20 |  |  | 
COCCOc1cc(C(=O)O)ccc1N(Cc1cc(C2CC2)cc(C2CC2)c1)C(=O)CN(Cc1ccc(F)cc1Cl)S(=O)(=O)c1c(F)c(F)c(F)c(F)c1F [Compound 1245, 4-(2-(N-(2-chloro-4-fluorobenzyl)-(2,3,4,5,6-pentafluorophenyl)sulfon-amido)-N-(3,5-dicyclopropylbenzyl)acetamido)-3-(2-methoxyethoxy)benzoic acid] | 2.37 to 4.12 | 0.001 to 10 |  |  | 
O=C(O)c1ccc(N(Cc2nc(C3CC3)cc(C3CC3)n2)C(=O)CN(Cc2ccc(F)cc2Cl)S(=O)(=O)c2c(F)c(F)c(F)c(F)c2F)c(OC2CC2)c1 [Compound 1247, 4-(2-(N-(2-chloro-4-fluorobenzyl)-(2,3,4,5,6-pentafluorophenyl)sulfon-amido)-N-((4,6-dicyclopropylpyrimidin-2-yl)methyl)acetamido)-3-cyclopropoxybenzoic acid] | 2.37 to 4.12 | 10 to 20 |  |  | 
CC(C)(C)c1cc(CN(C(=O)CN(Cc2ccc(F)cc2Cl)S(=O)(=O)c2c(F)c(F)c(F)c(F)c2F)c2ccc(C(=O)O)cc2O[C@H]2CCOC2)cc(C2CC2)c1 [Compound 1248, (S)-4-(N-(3-(tert-butyl)-5-cyclopropylbenzyl)-2-(N-(2-chloro-4-fluorobenzyl)-(2,3,4,5,6-pentafluorophenyl)sulfon-amido)acetamido)-3-((tetrahydrofuran-3-yl)oxy)benzoic acid] | 2.37 to 4.12 | 0.001 to 10 |  |  | 
Cc1cc(C(=O)O)ccc1N(Cc1cc(C2CC2)cc(C(C)(C)C)c1)C(=O)CN(Cc1ccc(F)cc1Cl)S(=O)(=O)c1c(F)c(F)c(F)c(F)c1F [Compound 1250, 4-(N-(3-(tert-butyl)-5-cyclopropylbenzyl)-2-(N-(2-chloro-4-fluorobenzyl)-(2,3,4,5,6-pentafluorophenyl)sulfon-amido)acetamido)-3-methylbenzoic acid] |  | 0.001 to 10 | 0.01 to 316 |  | 
O=C(O)c1ccc(N(Cc2cc(C3CC3)cc(C3CC3)c2)C(=O)CN(Cc2ccc(F)cc2Cl)S(=O)(=O)c2c(F)c(F)c(F)c(F)c2F)c(OC2CCSC2)c1 (stereo not shown) [Compound 1264, 4-(2-(N-(2-chloro-4-fluorobenzyl)-(2,3,4,5,6-pentafluorophenyl)sulfon-amido)-N-(3,5-dicyclopropylbenzyl)acetamido)-3-((tetrahydrothiophen-3-yl)oxy)benzoic acid] |  | 10 to 20 |  |  | 
CCOc1cc(C(=O)O)ccc1N(Cc1cc(C2CC2)cc(C2CC2)c1)C(=O)CN(Cc1ccc(F)cc1C#N)S(=O)(=O)c1c(F)c(F)c(F)c(F)c1F [Compound 1275, 4-(2-((N-(2-cyano-4-fluorobenzyl)-2,3,4,5,6-pentafluorophenyl)sulfonamido)-N-(3,5-dicyclopropylbenzyl)acetamido)-3-ethoxybenzoic acid] |  | 0.001 to 10 | 0.01 to 316 |  | 
